According to PMC6030093, “Discovery of peptide probes to modulate oxytocin-type receptors of insects” (Scientific Reports, 2018):
“Also recorded” adds a separate entry of the source. Positions of bridges follow the written chain, without caps; N, C: chain ends. No end group written: not given here.

Columns and labels:
[1] = system: T. castaneum inotocin receptor; assay: IP1 accumulation, agonist mode (T. castaneum inotocin receptor); type: cell-based, Tribolium castaneum
Text: (§1) The T. castaneum receptor gene was kindly provided by Yoonseong Park (Kansas State University)[8], whereas the L. niger inotocin receptor gene had been cloned and sequenced as per Di Giglio et al.[11]. Both receptor constructs were subsequently cloned into the pEGFP-N1 expression plasmid, generating C-terminal EGFP fusion receptor proteins. Receptors were expressed in HEK293 cells (ATCC, CRL 1573) via transfection using the Lipofectamine 2000® transfection reagent. The use of mammalian cell lines to study the receptors of insects and other invertebrate species, in the same vain as orphan receptors from mammalian genomes, is considered a standard procedure. Various studies have utilized this approach[8],[9],[11]. Whilst such mammalian cell lines may not completely mimic insect cell biology, GPCRs and their signalling is highly homologous across the animal kingdom; it would be unlikely that the insect receptors would mis-fold in a mammalian cell line. Nevertheless, during assay optimization we routinely monitored surface expression of GFP-tagged receptors, and we only proceeded to pharmacological assays, if the receptor localized at the cell membrane. Moreover, most biochemical cell-based functional assays are optimized for mammalian cells. Whilst it is possible that insect cells could be utilized for these assays, it is unknown whether they endogenously express inotocin receptors. […] Accordingly, mammalian cells were cultured in DMEM supplemented with 10% FBS and penicillin/streptomycin (100 U mL^−1) and plated in 6-well plates prior to transfection. When cells had reached confluency, cells were transfected as per the manufacturer’s protocol with 2.5 µg per well of each respective receptor construct using a DNA:Lipofectamine 2000® ratio of 1:3 prepared in serum-free DMEM. After 4–6 h, cells were dissociated by trituration and replated into white opaque 384-well plates (CellStar®, Greiner, Kremsmünster, Austria) at approximately 10,000 cells per well. Cells were cultured for approximately 38–48 h in a humidified incubator at 37 °C and an atmosphere of 5% CO2, and then assayed for second messenger production. Verification of receptor expression was assessed via microscopic examination of membrane localised GFP fluorescence.
(§2) Quantitative measurements of receptor-mediated inositol 1-phosphate (IP1) were performed by competitive immunoassay utilising the IP-One assay kit (CisBio, France). HEK293 cells were prepared as described above and then assayed as per the manufacturer’s protocol. Briefly, at the time of assay, the culture media was removed from cells, and then replaced with IP-One stimulation buffer (HEPES 10 mM, CaCl2 1 mM, MgCl2 0.5 mM, KCl 4.2 mM, NaCl 146 mM, glucose 5.5 mM, LiCl 50 mM, pH 7.4). […] The stimulation was terminated by lysis and the simultaneous addition of homogenous time-resolved fluorescence resonance energy transfer reagents. […] Fluorescence emission measurements at 620 nm and 665 nm were performed using a FlexStation3 plate reader (Molecular Devices, Sunnyvale, CA) or Spark Multimode plate reader (Tecan, Männedorf, Switzerland) at an excitation wavelength of 340 nm. Results were analysed as a ratio of fluorescence intensities of 665 nm to 620 nm.
(§3) Data from cellular assays were analysed using GraphPad Prism 7.03 (GraphPad Software, San Diego). […]

[2] = system: L. niger inotocin receptor; assay: IP1 accumulation, agonist mode (L. niger inotocin receptor); type: cell-based, Lasius niger; conditions: for Emax / LogEC50: HEK293 cells expressing L. niger receptor (C-terminal EGFP fusion), IP-One HTRF assay, mean ± S.E.M. from at least three independent experiments in triplicate; for Emax: 1 h at 37 °C; for LogEC50: pH 7.4, 1 h at 37 °C
Text: as §1
Quantitative measurements of receptor-mediated inositol 1-phosphate (IP1) were performed by competitive immunoassay utilising the IP-One assay kit (CisBio, France). HEK293 cells were prepared as described above and then assayed as per the manufacturer’s protocol. Briefly, at the time of assay, the culture media was removed from cells, and then replaced with IP-One stimulation buffer (HEPES 10 mM, CaCl2 1 mM, MgCl2 0.5 mM, KCl 4.2 mM, NaCl 146 mM, glucose 5.5 mM, LiCl 50 mM, pH 7.4). Cells were allowed to equilibrate in the stimulation buffer at 37 °C for 15 min, followed by addition of peptide ligands (to final concentrations of 0.1 pM – 10 µM) for subsequent stimulation for 1 h at 37 °C. The stimulation was terminated by lysis and the simultaneous addition of homogenous time-resolved fluorescence resonance energy transfer reagents. The lysates were incubated for a minimum of 1 h at room temperature. Fluorescence emission measurements at 620 nm and 665 nm were performed using a FlexStation3 plate reader (Molecular Devices, Sunnyvale, CA) or Spark Multimode plate reader (Tecan, Männedorf, Switzerland) at an excitation wavelength of 340 nm. Results were analysed as a ratio of fluorescence intensities of 665 nm to 620 nm.
Data from cellular assays were analysed using GraphPad Prism 7.03 (GraphPad Software, San Diego). Concentration-response data were fitted to three- or four-parameter logistic equations to derive estimates of potency (LogEC50) and efficacy (Emax), relative to the maximal inotocin control response. Data from agonist-antagonist interaction experiments were fit to a Schild regression analysis.

[3] = system: T. castaneum inotocin receptor; assay: Antagonism of inotocin-mediated IP1 accumulation, Schild analysis; type: cell-based, Tribolium castaneum; conditions: HEK293, IP1
Text: as §1, with “After 4–6 h, cells were dissociated by trituration and replated into white opaque 384-well plates (CellStar®, Greiner, Kremsmünster, Austria) at approximately 10,000 cells per well. Cells were cultured for approximately 38–48 h in a humidified incubator at 37 °C and an atmosphere of 5% CO2, and then assayed for second messenger production.” left out
as §2, with “France).” for “France). HEK293 cells were prepared as described above and then assayed as per the manufacturer’s protocol. Briefly, at the time of assay, the culture media was removed from cells, and then replaced with IP-One stimulation buffer (HEPES 10 mM, CaCl2 1 mM, MgCl2 0.5 mM, KCl 4.2 mM, NaCl 146 mM, glucose 5.5 mM, LiCl 50 mM, pH 7.4).”
as §3

human oxytocin receptor = conditions: cited from earlier work
Text: (§4) Compared to the level of identity between the T. castaneum inotocin receptor and its human counterparts (approximately 37–40% similarity ...

[4] = system: human vasopressin V1a receptor; conditions: cited from earlier work
Text: as §4

[5] = system: T. castaneum inotocin receptor; conditions: initial characterisation of the T. castaneum receptor; cited from earlier work
Text: In parallel to characterising the inotocin receptor activity of kalata B7, we sought to identify an antagonist peptide. Our recent study with the L. niger inotocin peptide-receptor system[11] further emphasised the structural homology shared between inotocin receptors and human oxytocin/vasopressin receptors (Fig. 2, Table 1). […] Given this homology, we were interested in the ability of the oxytocin/V1a receptor anta ...

[6] = target: Lasius niger inotocin receptor (Lasius niger)
[7] = target: Tribolium castaneum inotocin receptor (Tribolium castaneum)
[8] = T. castaneum receptor, IP1 accumulation, HEK293
[9] = L. niger receptor, IP1 accumulation, HEK293

Q: With atosiban as the molecule, how does the “agonist activity (in words)” value [1, 8] read?
A: Its value is “lacked agonist activity”.

Q: What about the Emax [2] of the same molecule?
A: The Emax was 89.9 ± 4.5 % inotocin max. response.

Q: What about the LogEC50 [2] of the same molecule?
A: The LogEC50 was −5.81 ± 0.12 Log[M].

Q: And the “agonist activity (in words)” value [2, 9]?
A: Its value is “partial agonist”.

Q: And the “antagonism of inotocin (in words)” value ([3]; dextral displacement of the inotocin concentration-response curve)?
A: Its value is “competitively inhibits the T. castaneum inotocin receptor; also recorded: selectively antagonises the T. castaneum receptor”.

Q: And the estimated functional affinity ([3]; from Schild analysis (pA2), competitive antagonism of inotocin)?
A: The estimated functional affinity was “approximately 93 nM”.

Q: And the pA2 ([3]; inotocin 1 pM – 10 µM in absence or presence of 100 nM, 1 µM, 3 µM, 10 µM atosiban, Schild analysis, mean ± S.E.M. of three independent experiments in triplicate)?
A: The pA2 was 7.03 ± 0.086.

Q: And the “Schild Slope” value ([3]; inotocin 1 pM – 10 µM in absence or presence of 100 nM, 1 µM, 3 µM, 10 µM atosiban, mean ± S.E.M. of three independent experiments in triplicate)?
A: The value was 1.00 ± 0.085.

Q: Which results are given for “kalata B7: plant-derived cyclic peptide (cyclotide) from Oldenlandia affinis, synthesised by Fmoc-SPPS and native chemical ligation (cyclo(GLPVCGETCTLGTCYTQGCTCSWPICKRN); also: oxidized form, disulfides not placed)”?
A: Emax ([1]; HEK293 cells expressing T. castaneum receptor (C-terminal EGFP fusion), IP-One HTRF assay, 1 h at 37 °C, mean ± S.E.M. from at least three independent experiments in triplicate): 60.3 ± 9.6 % inotocin max. response; LogEC50 ([1]; HEK293 cells expressing T. castaneum receptor (C-terminal EGFP fusion), IP-One HTRF assay, pH 7.4, 1 h at 37 °C, mean ± S.E.M. from at least three independent experiments in triplicate): −5.14 ± 0.22 Log[M]; agonist activity (in words) [1, 8]: weak partial agonist; EC50 ([1]; T. castaneum receptor, IP1 accumulation, HEK293, read-out: potency): 7.2 µM; Emax [2]: 86.5 ± 4.7 % inotocin max. response; LogEC50 [2]: −5.66 ± 0.10 Log[M]; agonist activity (in words) [2, 9]: weak partial agonist; EC50 ([2]; L. niger receptor, IP1 accumulation, HEK293, read-out: potency): 2.2 µM; effects on cell viability (HEK293 cells): did not observe negative effects on cell viability; activity at human oxytocin receptor (in words) (human oxytocin receptor): partial agonist; activity at human vasopressin V1a receptor (in words) [4]: partial agonist

Q: With “oxytocin: reported agonist of the T. castaneum receptor” as the molecule, how does the “agonist activity at T. castaneum receptor (in words)” value [5] read?
A: Its value is “agonist”.

B1: kalata B7 (peptide)
peptide: cyclo(GLPVCGETCTLGTCYTQGCTCSWPICKRN)
modifications: disulfide (positions not given here); also: oxidized, disulfide pairing not given here
Q: For B1, which Emax of receptor-mediated IP1 accumulation in HEK293 cells expressing the L. niger inotocin receptor (% inotocin max. response) [6] is on record?
A: The Emax of receptor-mediated IP1 accumulation in HEK293 cells expressing the L. niger inotocin receptor (% inotocin max. response) was 86.5.

Q: And the LogEC50 of receptor-mediated IP1 accumulation in HEK293 cells expressing the L. niger inotocin receptor [6]?
A: The LogEC50 of receptor-mediated IP1 accumulation in HEK293 cells expressing the L. niger inotocin receptor was -5.66 Log[M].

Q: What about the Emax of receptor-mediated IP1 accumulation in HEK293 cells expressing the T. castaneum inotocin receptor (% inotocin max. response) [7] of the same molecule?
A: The Emax of receptor-mediated IP1 accumulation in HEK293 cells expressing the T. castaneum inotocin receptor (% inotocin max. response) was 60.3.

Q: And the LogEC50 of receptor-mediated IP1 accumulation in HEK293 cells expressing the T. castaneum inotocin receptor [7]?
A: Its LogEC50 of receptor-mediated IP1 accumulation in HEK293 cells expressing the T. castaneum inotocin receptor is -5.14 Log[M].

B2: inotocin (peptide)
peptide: CLITNCPRG-NH2
modifications: disulfide 1-6 (inferred)
Q: Which results are given for B2?
A: Emax of receptor-mediated IP1 accumulation in HEK293 cells expressing the L. niger inotocin receptor (the reference response) (% inotocin max. response) [6]: 100; LogEC50 of receptor-mediated IP1 accumulation in HEK293 cells expressing the L. niger inotocin receptor [6]: -10.2 Log[M]; Emax of receptor-mediated IP1 accumulation in HEK293 cells expressing the T. castaneum inotocin receptor (the reference response) [7]: 100%; LogEC50 of receptor-mediated IP1 accumulation in HEK293 cells expressing the T. castaneum inotocin receptor [7]: -9.63 Log[M]
